# Assay results: paper PMC9501983, “Transport and Permeation Properties of Dapivirine: Understanding Potential Drug-Drug Interactions” (Pharmaceutics, 2022)
# Key:
# MRP4 = tested on: MRP4; parameters: method as in PMID 26102284; conditions: DPV at 10 μM; cited from earlier work
# UGT enzymes = tested on: UGT enzymes; parameters: method as in PMID 34959473; conditions: cited from earlier work
# MRP1 [1] = biological target: MRP1 (Homo sapiens, UniProt P33527); experiment: ATPase assay (ADP-Glo Max) in MRP1 vesicles; format: biochemical; parameters: purchased Thermo Fisher Scientific; conditions: DPV 20 μM; N-ethylmaleimide-S-glutathione 10 mM; 60 min, 37 °C
# Procedure: ATPase activity of MRP1 or MRP4 in transporter overexpressing membrane vesicles (10 μg of protein per assay) was measured by the ADP-Glo Max assay according to manufacturer’s protocol. The assay quantified the amount of ADP produced by the membrane vesicles over 60 min at 37 °C in the ATPase assay buffer (50 mM Tris-MOPS, 50 mM potassium chloride, 5 mM sodium azide, 2 mM dithiothreitol, 2 mM glutathione, 0.1 mM EGTA-Tris, and 10 mM magnesium chloride at pH 7.0). DPV was tested at 20 μM and compared to the baseline ATPase activity. A known MRP1 substrate, N-ethylmaleimide-S-glutathione (prepared by mixing N-ethylmaleimide and glutathione at a 1:1 molar ratio), at 10 mM and a known MRP4 substrate, prostaglandin E2, at 20 μM were used as positive controls. The reaction was initiated with 5 mM ATP and quenched with the ADP-Glo detection buffer. The amount of ADP produced was quantified by recording luminescence on a SpectraMax M3 plate reader (Molecular Devices, San Jose, CA, USA).
# [2] = DPV tissue permeability across excised human ectocervical tissue (in-line cell); format: in vitro ADME; conditions: female, human; 182 µM DPV alone in vaginal fluid simulant pH 4.2, 360 min; read-out: Papp across human cervical tissue
# Text: Freshly excised human ectocervical tissue samples from 6 pre-menopausal women were obtained through the Pitt Biospecimen Core at the University of Pittsburgh under an IRB-approved protocol (IRB# PRO09110431). Tissue samples were immersed in ice-cold Dulbecco’s modified Eagle medium during transfer from the surgery site to the laboratory. Tissue samples were then processed as previously reported, where excess stromal tissue was removed using a scalpel, and the epithelium was isolated using a Stadie-Riggs tissue slicer. The isolated epithelium sections were then mounted onto the in-line cell apparatus (PermeGear, Cranford, NJ, USA), a flow-through type Franz cell, with the epithelial side facing the apical compartment. A small piece of tissue sample was fixed in 10% formalin as the pre-treatment control for histology evaluation.
# Vaginal fluid simulant was used to prepare drug solutions. Vaginal fluid simulant was prepared using a reported formulation (3.51 g L^−1 sodium chloride, 1.40 g L^−1 potassium hydroxide, 0.22 g L^−1 calcium hydroxide, 0.018 g L^−1 bovine serum albumin, 2.00 g L^−1 lactic acid, 1.00 g L^−1 acetic acid, 0.16 g L^−1 glycerin, 0.4 g L^−1 urea, and 5.0 g L^−1 glucose) and adjusted to pH 4.2 with 1N hydrochloric acid. To evaluate the impact of MIC on DPV tissue permeability, 450 μL of a mixture containing 182 µM (60 μg g^−1) DPV and 63 mM (30 mg g^−1) MIC was added to the apical compartment and compared to 182 µM (60 μg g^−1) DPV alone. […] One half of the tissue sample was fixed in 10% formalin for subsequent histological evaluation, while the other half was used for drug quantification. To quantify drug tissue levels, each tissue sample was digested overnight in 2 mL Solvable held at 50 °C. […] Samples were then cooled to room temperature and 1.5 mL of each sample was used for quantification. To quantify ^3H-DPV and ^14C-mannitol, each vial of collected sample was mixed with 2 mL scintillation cocktail and analyzed on an LS6500 liquid scintillation counter. Papp was calculated using Equation (2) as described above.
# P-gp = biological target: T1, P-gp (Homo sapiens, UniProt P08183); experiment: Bi-directional transport across MDCKII P-gp and WT cell monolayers; format: in vitro ADME
# T1 construct: expressed in transfected cells; host or cells: MDCKII (Madin-Darby canine kidney) cells, provided by Dr. Philip E. Empey
# MRP1 [3] = tested on: MRP1; parameters: method as in PMID 26102284; conditions: DPV at 10 μM; cited from earlier work
# BCRP = biological target: T2, BCRP (Homo sapiens, UniProt Q9UNQ0); experiment: Bi-directional transport across MDCKII BCRP and WT/EV cell monolayers
# T2 sequence (Q9UNQ0 1-655): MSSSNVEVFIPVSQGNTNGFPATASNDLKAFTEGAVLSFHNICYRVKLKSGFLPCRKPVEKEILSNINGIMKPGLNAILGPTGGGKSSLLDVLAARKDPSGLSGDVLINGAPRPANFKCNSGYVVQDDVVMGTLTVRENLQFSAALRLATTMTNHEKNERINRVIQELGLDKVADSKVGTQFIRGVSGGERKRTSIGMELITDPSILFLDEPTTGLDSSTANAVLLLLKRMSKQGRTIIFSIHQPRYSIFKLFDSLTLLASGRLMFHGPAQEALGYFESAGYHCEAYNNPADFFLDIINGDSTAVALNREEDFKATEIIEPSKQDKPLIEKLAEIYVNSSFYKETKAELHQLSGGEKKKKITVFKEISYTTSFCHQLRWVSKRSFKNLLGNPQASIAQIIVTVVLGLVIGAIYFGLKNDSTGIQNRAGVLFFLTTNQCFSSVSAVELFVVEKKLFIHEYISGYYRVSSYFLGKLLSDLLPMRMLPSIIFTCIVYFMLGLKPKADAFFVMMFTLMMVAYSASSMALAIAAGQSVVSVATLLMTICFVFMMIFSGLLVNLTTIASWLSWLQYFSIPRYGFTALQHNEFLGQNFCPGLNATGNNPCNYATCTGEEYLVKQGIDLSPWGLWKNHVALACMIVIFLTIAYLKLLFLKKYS
# T1 sequence (P08183 whole entry): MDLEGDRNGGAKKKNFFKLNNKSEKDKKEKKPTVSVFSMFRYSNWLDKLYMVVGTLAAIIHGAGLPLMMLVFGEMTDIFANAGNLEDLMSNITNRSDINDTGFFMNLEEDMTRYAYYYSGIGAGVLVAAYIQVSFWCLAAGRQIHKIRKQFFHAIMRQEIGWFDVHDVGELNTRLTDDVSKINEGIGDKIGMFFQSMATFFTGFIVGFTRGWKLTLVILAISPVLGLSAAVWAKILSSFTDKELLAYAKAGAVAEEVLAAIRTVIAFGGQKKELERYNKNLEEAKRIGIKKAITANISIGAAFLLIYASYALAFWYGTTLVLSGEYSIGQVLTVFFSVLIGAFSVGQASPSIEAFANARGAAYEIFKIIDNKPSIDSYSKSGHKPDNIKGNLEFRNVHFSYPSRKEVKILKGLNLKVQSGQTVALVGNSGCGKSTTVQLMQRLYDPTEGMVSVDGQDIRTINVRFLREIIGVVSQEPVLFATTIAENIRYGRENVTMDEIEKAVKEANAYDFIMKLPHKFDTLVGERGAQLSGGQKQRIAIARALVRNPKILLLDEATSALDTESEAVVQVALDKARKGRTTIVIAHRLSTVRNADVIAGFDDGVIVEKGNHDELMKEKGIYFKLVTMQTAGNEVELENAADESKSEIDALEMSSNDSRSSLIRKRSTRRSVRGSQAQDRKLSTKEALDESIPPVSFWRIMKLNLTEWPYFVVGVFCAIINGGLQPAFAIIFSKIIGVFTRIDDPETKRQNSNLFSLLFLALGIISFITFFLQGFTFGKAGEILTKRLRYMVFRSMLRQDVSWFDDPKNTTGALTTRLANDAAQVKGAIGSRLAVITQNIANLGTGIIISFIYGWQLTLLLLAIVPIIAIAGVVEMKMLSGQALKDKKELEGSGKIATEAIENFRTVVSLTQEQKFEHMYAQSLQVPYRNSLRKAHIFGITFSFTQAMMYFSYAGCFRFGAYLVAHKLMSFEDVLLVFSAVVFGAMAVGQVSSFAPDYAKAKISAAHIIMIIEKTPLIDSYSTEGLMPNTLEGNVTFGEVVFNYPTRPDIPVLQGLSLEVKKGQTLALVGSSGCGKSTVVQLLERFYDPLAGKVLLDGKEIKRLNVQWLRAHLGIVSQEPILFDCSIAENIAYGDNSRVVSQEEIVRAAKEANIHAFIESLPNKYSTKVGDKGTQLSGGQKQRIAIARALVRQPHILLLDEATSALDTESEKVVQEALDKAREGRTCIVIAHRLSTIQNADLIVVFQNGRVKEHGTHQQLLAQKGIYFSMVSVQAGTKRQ
# Sequence of MRP1 (Homo sapiens, UniProt P33527) (P33527 whole entry): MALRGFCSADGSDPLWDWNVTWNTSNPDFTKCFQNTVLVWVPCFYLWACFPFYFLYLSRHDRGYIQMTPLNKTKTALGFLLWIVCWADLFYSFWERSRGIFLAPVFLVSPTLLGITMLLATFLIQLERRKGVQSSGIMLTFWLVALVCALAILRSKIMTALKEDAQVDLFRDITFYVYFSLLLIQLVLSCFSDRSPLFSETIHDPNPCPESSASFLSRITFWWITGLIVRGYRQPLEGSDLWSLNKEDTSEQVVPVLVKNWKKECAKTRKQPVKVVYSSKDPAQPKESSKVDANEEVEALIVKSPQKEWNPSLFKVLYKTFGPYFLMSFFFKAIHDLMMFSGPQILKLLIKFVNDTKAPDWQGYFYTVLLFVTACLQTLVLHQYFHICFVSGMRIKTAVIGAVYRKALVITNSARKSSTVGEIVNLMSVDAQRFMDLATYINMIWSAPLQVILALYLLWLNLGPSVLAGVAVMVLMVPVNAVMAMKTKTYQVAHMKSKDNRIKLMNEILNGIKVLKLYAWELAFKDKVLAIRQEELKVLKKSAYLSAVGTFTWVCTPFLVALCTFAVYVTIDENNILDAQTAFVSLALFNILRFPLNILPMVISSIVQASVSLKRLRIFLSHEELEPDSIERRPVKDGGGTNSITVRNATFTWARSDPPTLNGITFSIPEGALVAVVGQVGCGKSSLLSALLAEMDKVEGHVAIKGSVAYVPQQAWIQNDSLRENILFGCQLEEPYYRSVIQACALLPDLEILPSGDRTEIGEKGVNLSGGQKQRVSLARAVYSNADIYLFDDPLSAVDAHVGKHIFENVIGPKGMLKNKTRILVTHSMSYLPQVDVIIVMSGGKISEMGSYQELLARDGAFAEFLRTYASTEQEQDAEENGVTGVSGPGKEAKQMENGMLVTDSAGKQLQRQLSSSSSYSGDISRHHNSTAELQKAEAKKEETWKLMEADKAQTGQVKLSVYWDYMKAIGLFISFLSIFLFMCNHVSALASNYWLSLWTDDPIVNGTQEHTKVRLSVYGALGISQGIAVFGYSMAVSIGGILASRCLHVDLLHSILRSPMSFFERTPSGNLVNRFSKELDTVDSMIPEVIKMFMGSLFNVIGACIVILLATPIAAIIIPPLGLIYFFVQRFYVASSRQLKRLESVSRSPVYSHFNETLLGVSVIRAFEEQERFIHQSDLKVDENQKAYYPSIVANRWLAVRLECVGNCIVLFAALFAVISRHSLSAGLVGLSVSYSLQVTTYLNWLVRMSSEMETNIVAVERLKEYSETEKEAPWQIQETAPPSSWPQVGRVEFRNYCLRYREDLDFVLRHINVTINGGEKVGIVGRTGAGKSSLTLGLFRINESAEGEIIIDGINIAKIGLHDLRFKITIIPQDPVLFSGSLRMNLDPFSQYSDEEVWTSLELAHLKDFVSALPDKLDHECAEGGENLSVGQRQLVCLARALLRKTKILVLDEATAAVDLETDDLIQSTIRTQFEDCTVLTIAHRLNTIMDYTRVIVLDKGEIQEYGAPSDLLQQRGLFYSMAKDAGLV
smiles,measurement,setting,value
"Cc1cc(C)c(Nc2ccnc(Nc3ccc(C#N)cc3)n2)c(C)c1 [DPV, dapivirine]",Effect on MRP4 expression level,MRP4,downregulating
same,Substrate of UGT enzymes,UGT enzymes,not a substrate
same,"ATPase activity in MRP1 vesicles, % of baseline",MRP1 [1],no significant stimulation
same,"Papp at 360 min, 182 µM",[2],0.88 ± 0.53 ×10⁻⁶ cm/s
same,"DPV ER in MDCKII P-gp cells with verapamil, reduced to % of ER without","P-gp; 0.5 μM DPV, 100 μM verapamil",65%
same,Impact on Papp of digoxin across MDCKII P-gp monolayers (either direction),"P-gp; 5 μM DPV, 1 μM digoxin",no significant impact
same,Substrate status for P-gp,P-gp; cellular system,not a substrate
same,"efflux ratio at 90 min, 0.5 μM","P-gp; dog, MDCK-MDR1, pH 7.4, 0.5 μM DPV, read-out: Net flux ratio (ER MDCKII P-gp / ER MDCKII WT)",1.31
same,Effect on MRP1 expression level,MRP1 [3],upregulated
same,"DPV ER in MDCKII BCRP cells with Ko143, reduced to % of ER without","BCRP; 0.5 μM DPV, 1 μM Ko143",85%
same,Impact on Papp of nitrofurantoin across MDCKII BCRP monolayers (either direction),"BCRP; 5 μM DPV, 1 μM nitrofurantoin",no significant impact
same,Substrate status for BCRP,BCRP; cellular system,not a substrate
same,"efflux ratio at 90 min, 0.5 μM","BCRP; dog, pH 7.4",1.33
